Data on 32 molecules can be found in paper PMC8425678, “1-Oxo-3,4-dihydroisoquinoline-4-carboxamides as novel druglike inhibitors of poly(ADP-ribose) polymerase (PARP) with favourable ADME characteristics” (Journal of Enzyme Inhibition and Medicinal Chemistry, 2021).

Entries after “also recorded” stand apart in the source; their conditions may differ.

One data set deals with T1, PARP1 (Homo sapiens, UniProt P09874).
T1 construct: purchased BPS Bioscience (San Diego, CA)
The data set can be described thus: PARP1 colorimetric activity assay kit (BPS Bioscience). The data set is classed as biochemical. The conditions noted are these: for inhibition at 1 µM: read-out: PARP1 % inhibition at 1 µM, 1 µM compound, triplicate (n = 3); for IC50: dose-response, mean (n = 3) ± SD, r^2 in brackets; for PARP1 inhibitory potency in words: compared with 3l. How it is done: (§1) The thirty-six 1-oxo-3,4-dihydroisoquinoline-4-carboxamides 3a-aj and 1-oxoisoquinoline-4-carboxamide 11 were tested for inhibitory activity towards PARP1 and PARP2 using the commercially available colorimetric activity assay kit from BPS Bioscience (San Diego, CA) in full accordance of the supplier’s method description[13]^,[14]. The initial screening was performed against PARP1 at 1 µM concentration of each compound, in triplicate (n = 3) measurements.

The next data set has as its target T2, PARP2 (Homo sapiens, UniProt Q9UGN5).
T2 construct: purchased BPS Bioscience (San Diego, CA)
The data set can be described thus: PARP2 colorimetric activity assay kit (BPS Bioscience). The data set is classed as biochemical. The conditions noted are these: for IC50: dose-response, mean (n = 3) ± SD, r^2 in brackets. Here is the method:
as §1

T2 sequence (Q9UGN5 whole entry): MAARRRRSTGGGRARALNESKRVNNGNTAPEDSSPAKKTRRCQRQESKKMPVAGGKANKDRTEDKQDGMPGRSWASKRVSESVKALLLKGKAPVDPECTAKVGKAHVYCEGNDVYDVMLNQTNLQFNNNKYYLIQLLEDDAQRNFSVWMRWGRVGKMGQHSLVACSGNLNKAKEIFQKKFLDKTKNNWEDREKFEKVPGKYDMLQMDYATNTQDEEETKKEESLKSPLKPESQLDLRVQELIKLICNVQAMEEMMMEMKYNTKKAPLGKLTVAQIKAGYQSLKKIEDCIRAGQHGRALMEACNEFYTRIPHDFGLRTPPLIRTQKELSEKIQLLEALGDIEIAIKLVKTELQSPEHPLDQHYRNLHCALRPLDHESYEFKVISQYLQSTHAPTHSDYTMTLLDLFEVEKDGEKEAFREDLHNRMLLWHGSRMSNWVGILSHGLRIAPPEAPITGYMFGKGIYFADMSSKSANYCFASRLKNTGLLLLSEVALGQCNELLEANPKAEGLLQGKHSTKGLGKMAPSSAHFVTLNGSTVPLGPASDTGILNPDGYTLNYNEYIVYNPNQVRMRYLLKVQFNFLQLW
T1 sequence (P09874 whole entry): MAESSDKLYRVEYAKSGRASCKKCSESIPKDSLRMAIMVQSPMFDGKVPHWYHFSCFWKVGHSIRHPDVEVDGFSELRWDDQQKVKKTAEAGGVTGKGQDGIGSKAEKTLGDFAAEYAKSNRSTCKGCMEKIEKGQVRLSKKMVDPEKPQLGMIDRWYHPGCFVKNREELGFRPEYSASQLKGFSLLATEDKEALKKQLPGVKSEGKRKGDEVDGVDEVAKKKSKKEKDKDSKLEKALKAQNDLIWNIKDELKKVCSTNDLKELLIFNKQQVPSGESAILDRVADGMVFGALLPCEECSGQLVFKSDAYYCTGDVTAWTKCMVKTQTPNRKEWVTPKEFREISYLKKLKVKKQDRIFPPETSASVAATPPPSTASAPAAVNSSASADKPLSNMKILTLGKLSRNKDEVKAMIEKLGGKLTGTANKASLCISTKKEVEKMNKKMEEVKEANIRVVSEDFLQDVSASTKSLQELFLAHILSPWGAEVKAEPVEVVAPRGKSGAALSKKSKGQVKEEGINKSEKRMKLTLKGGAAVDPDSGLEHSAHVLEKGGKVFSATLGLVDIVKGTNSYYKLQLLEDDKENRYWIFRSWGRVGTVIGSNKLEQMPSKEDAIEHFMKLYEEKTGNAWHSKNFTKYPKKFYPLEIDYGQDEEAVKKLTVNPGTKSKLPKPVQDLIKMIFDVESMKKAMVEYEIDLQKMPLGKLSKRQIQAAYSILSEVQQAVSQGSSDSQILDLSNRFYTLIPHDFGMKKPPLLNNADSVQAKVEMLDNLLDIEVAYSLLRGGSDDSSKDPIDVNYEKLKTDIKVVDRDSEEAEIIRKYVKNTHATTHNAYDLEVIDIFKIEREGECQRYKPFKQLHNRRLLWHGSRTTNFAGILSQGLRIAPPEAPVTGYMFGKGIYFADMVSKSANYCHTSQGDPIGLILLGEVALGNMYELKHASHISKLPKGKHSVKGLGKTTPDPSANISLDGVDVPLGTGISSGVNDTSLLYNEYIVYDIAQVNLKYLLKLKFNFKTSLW

As to `CCOC(=O)N1CCN(C(=O)C2CNC(=O)c3ccccc32)CC1` (stereo not drawn) [Compound 3a, Ethyl 4–(1-oxo-1,2,3,4-tetrahydroisoquinoline-4-carbonyl)piperazine-1-carboxylate], the inhibition at 1 µM at PARP1 amounted to 26.3 ± 7.7%.

For `CC1CCN(C2CCN(C(=O)C3CNC(=O)c4cc(F)ccc43)CC2)CC1` (stereo not drawn) [Compound 3ab, 7-Fluoro-4–(4-methyl-[1,4'-bipiperidine]-1'-carbonyl)-3,4-dihydroisoquinolin-1(2H)-one], the melting point was in the range of 171 to 172 °C. For the same molecule, on PARP2, the “SI, selectivity index (PARP2 over PARP1)” value was 2.82 and the IC50 was found to be 28.8 ± 4.2 nM. For the same molecule, on PARP1, the IC50 came out at 82 ± 6.9 nM and the inhibition at 1 µM came out at 93.9 ± 0.2%.

As for `O=C1NCC(C(=O)N2CCC(N3CCCC3)CC2)c2ccc(F)cc21` (stereo not drawn) [Compound 3ac, 7-Fluoro-4–(4-(pyrrolidin-1-yl)piperidine-1-carbonyl)-3,4-dihydroisoquinolin-1(2H)-one], the melting point lay within 141 to 142 °C. Moreover, on PARP2, the “SI, selectivity index (PARP2 over PARP1)” value amounted to 2.3 and the IC50 was found to be 29.6 ± 6.1 nM. Moreover, on PARP1, half-maximal inhibition (IC50) required 69.5 ± 8.8 nM and the inhibition at 1 µM was determined as 95.8 ± 0.7%.

In turn, `CCN(CC)C1CCN(C(=O)C2CNC(=O)c3cc(F)ccc32)CC1` (stereo not drawn) [Compound 3ad, 4–(4-(Diethylamino)piperidine-1-carbonyl)-7-fluoro-3,4-dihydroisoquinolin-1(2H)-one] returned a melting point of 134 to 135 °C. In addition, on PARP2, the “SI, selectivity index (PARP2 over PARP1)” value amounted to 3.23 and the IC50 turned out to be 40.4 ± 5.8 nM. Besides, on PARP1, the IC50 was found to be 128 ± 7.1 nM and the inhibition at 1 µM is 92.6 ± 1.1%.

Molecule `O=C1NCC(C(=O)N2CCC(N3CCCCCC3)CC2)c2ccc(F)cc21` (stereo not drawn) [Compound 3ae, 4-(4-(Azepan-1-yl)piperidine-1-carbonyl)-7-fluoro-3,4-dihydroisoquinolin-1(2H)-one] came in with a melting point of 179 to 180 °C. For the same molecule, at PARP2, the “SI, selectivity index (PARP2 over PARP1)” value is 2.61 and the half-inhibitory concentration (IC50) was 20.6 ± 2.5 nM. In addition, on PARP1, the midpoint of inhibition, the IC50, lay at 55 ± 9.9 nM and the inhibition at 1 µM amounted to 96.6 ± 0.3%.

Regarding `O=C1NCC(C(=O)N2CCC(N3CCC(F)(F)CC3)CC2)c2ccc(F)cc21` (stereo not drawn) [Compound 3ah, 4–(4,4-Difluoro-[1,4'-bipiperidine]-1'-carbonyl)-7-fluoro-3,4-dihydroisoquinolin-1(2H)-one], on PARP2, the “SI, selectivity index (PARP2 over PARP1)” value came to 4.46 and the IC50 is 83.1 ± 6.9 nM. Further, at PARP1, 371 ± 42 nM corresponded to half-maximal inhibition (IC50) and the inhibition at 1 µM is 81.9 ± 1.8%.

In the case of `O=C1NCC(C(=O)N2CCC(N3CCC(F)CC3)CC2)c2ccc(F)cc21` (stereo not drawn) [Compound 3ai, 7-Fluoro-4–(4-fluoro-[1,4'-bipiperidine]-1'-carbonyl)-3,4-dihydroisoquinolin-1(2H)-one], at PARP2, the “SI, selectivity index (PARP2 over PARP1)” value amounted to 3.52 and the midpoint of inhibition, the IC50, lay at 42 ± 2.3 nM. Further, at PARP1, the IC50 was 148 ± 17 nM and the inhibition at 1 µM is 93.7 ± 0.8%.

`CC1CCN(C(=O)C2CNC(=O)c3ccccc32)CC1` (stereo not drawn) [Compound 3b, 4–(4-Methylpiperidine-1-carbonyl)-3,4-dihydroisoquinolin-1(2H)-one]: on PARP1, the inhibition at 1 µM was 42.7 ± 0.9%.

Consider `CN(Cc1ccccc1)C(=O)C1CNC(=O)c2ccccc21` (stereo not drawn) [Compound 3c, N-Benzyl-N-methyl-1-oxo-1,2,3,4-tetrahydroisoquinoline-4-carboxamide], for which the melting point was 148 to 149 °C. Further, the inhibition at 1 µM on PARP1 turned out to be 18.6 ± 13.2%.

As to `O=C1NCC(C(=O)NCc2ccc(Cl)cc2)c2ccccc21` (stereo not drawn) [Compound 3d, N-(4-Chlorobenzyl)-1-oxo-1,2,3,4-tetrahydroisoquinoline-4-carboxamide], the inhibition at 1 µM at PARP1 is 7.4 ± 8.7%.

Take `O=C1NCC(C(=O)N2CCc3ccccc3C2)c2ccccc21` (stereo not drawn) [Compound 3e, 4–(1,2,3,4-Tetrahydroisoquinoline-2-carbonyl)-3,4-dihydroisoquinolin-1(2H)-one]: the melting point lay within 222 to 223 °C. For the same molecule, the inhibition at 1 µM at PARP1 amounted to 56 ± 7.5%.

Turning to `CCN1CCN(C(=O)C2CNC(=O)c3ccccc32)CC1` (stereo not drawn) [Compound 3f, 4–(4-ethylpiperazine-1-carbonyl)-3,4-dihydroisoquinolin-1(2H)-one], the inhibition at 1 µM at PARP1 was found to be 26.2 ± 9.7%.

In turn, `CCOC(=O)C1CCN(C(=O)C2CNC(=O)c3ccccc32)CC1` (stereo not drawn) [Compound 3g, Ethyl 1–(1-oxo-1,2,3,4-tetrahydroisoquinoline-4-carbonyl)piperidine-4-carboxylate] gave a melting point of 120 to 121 °C. Further, the inhibition at 1 µM on PARP1 was determined as 47.6 ± 4.1%.

Molecule `CN1CCN(C(=O)C2CNC(=O)c3ccccc32)CC1` (stereo not drawn) [Compound 3h, 4–(4-Methylpiperazine-1-carbonyl)-3,4-dihydroisoquinolin-1(2H)-one] registered a melting point of 163 to 164 °C. The inhibition at 1 µM at PARP1 was determined as 27.3 ± 6%.

Molecule `Cc1ccc(S(=O)(=O)N2CCN(C(=O)C3CNC(=O)c4ccccc43)CC2)cc1` (stereo not drawn) [Compound 3i, 4–(4-Tosylpiperazine-1-carbonyl)-3,4-dihydroisoquinolin-1(2H)-one] returned a melting point of 228 to 229 °C. In addition, the inhibition at 1 µM at PARP1 stood at 28.9 ± 5.5%.

Turning to `O=C1NCC(C(=O)N2CCOCC2)c2ccccc21` (stereo not drawn) [Compound 3j, 4-(Morpholine-4-carbonyl)-3,4-dihydroisoquinolin-1(2H)-one], the inhibition at 1 µM at PARP1 was found to be 57.6 ± 5.8%.

As to `O=C1NCC(C(=O)N2CCC(Cc3ccccc3)CC2)c2ccccc21` (stereo not drawn) [Compound 3k, 4–(4-Benzylpiperidine-1-carbonyl)-3,4-dihydroisoquinolin-1(2H)-one], the melting point lay in the range of 191 to 192 °C. Further, the inhibition at 1 µM on PARP1 worked out at 45.1 ± 1.7%.

As for `O=C1NCC(C(=O)N2CCCC2)c2ccccc21` (stereo not drawn) [Compound 3m, 4-(Pyrrolidine-1-carbonyl)-3,4-dihydroisoquinolin-1(2H)-one], the inhibition at 1 µM at PARP1 was 31.2 ± 3.4%.

For the molecule `O=C1NCC(C(=O)N2CCCCCC2)c2ccccc21` (stereo not drawn) [Compound 3n, 4-(Azepane-1-carbonyl)-3,4-dihydroisoquinolin-1(2H)-one], the inhibition at 1 µM on PARP1 came out at 35.4 ± 5.1%.

`O=C1NCC(C(=O)N2CCSCC2)c2ccccc21` (stereo not drawn) [Compound 3o, 4-(Thiomorpholine-4-carbonyl)-3,4-dihydroisoquinolin-1(2H)-one] showed a melting point of 171 to 172 °C. The inhibition at 1 µM on PARP1 is 47.4 ± 3.7%.

As for `O=C1NCC(C(=O)NCc2ccc(F)cc2)c2ccccc21` (stereo not drawn) [Compound 3p, N-(4-Fluorobenzyl)-1-oxo-1,2,3,4-tetrahydroisoquinoline-4-carboxamide], the melting point lay in the range of 188 to 189 °C. At PARP1, the inhibition at 1 µM came out at 27.2 ± 4.3%.

On to `COc1ccccc1N1CCN(C(=O)C2CNC(=O)c3ccccc32)CC1` (stereo not drawn) [Compound 3q, 4–(4-(2-Methoxyphenyl)piperazine-1-carbonyl)-3,4-dihydroisoquinolin-1(2H)-one], for which the melting point fell in the range of 155 to 156 °C. Also, the inhibition at 1 µM on PARP1 is 32.9 ± 2.4%.

With `O=C1NCC(C(=O)N2CCC3(CCCCO3)CC2)c2ccccc21` (stereo not drawn) [Compound 3r, 4–(1-Oxa-9-azaspiro[5.5]undecane-9-carbonyl)-3,4-dihydroisoquinolin-1(2H)-one], the inhibition at 1 µM at PARP1 was 28.5 ± 7.1%.

`O=C1NCC(C(=O)NCc2ccc(N3CCCCC3)cc2)c2ccccc21` (stereo not drawn) [Compound 3s, 1-oxo-N-(4-(piperidin-1-yl)benzyl)-1,2,3,4-tetrahydroisoquinoline-4-carboxamide] came in with a melting point of 235 to 236 °C. Besides, the inhibition at 1 µM on PARP1 turned out to be 12.5 ± 8.5%.

As to `O=C1NCC(C(=O)N2CCN(Cc3ccc(F)cc3)CC2)c2ccccc21` (stereo not drawn) [Compound 3t, 4–(4–(4-Fluorobenzyl)piperazine-1-carbonyl)-3,4-dihydroisoquinolin-1(2H)-one], the inhibition at 1 µM on PARP1 was determined as 43.3 ± 5.9%.

On to `O=C1NCC(C(=O)N2CCN(Cc3ccccc3F)CC2)c2ccccc21` (stereo not drawn) [Compound 3u, 4–(4-(2-Fluorobenzyl)piperazine-1-carbonyl)-3,4-dihydroisoquinolin-1(2H)-one], for which, at PARP1, the inhibition at 1 µM worked out at 31.9 ± 2%.

Regarding `O=C1NCC(C(=O)N2CCC(N3CCOCC3)CC2)c2ccccc21` (stereo not drawn) [Compound 3v, 4–(4-Morpholinopiperidine-1-carbonyl)-3,4-dihydroisoquinolin-1(2H)-one], at PARP1, the “PARP1 inhibitory potency in words” value is “significantly less potent; also recorded: inactive” and the inhibition at 1 µM is 33.2 ± 4.8%.

As to `O=C1NCC(C(=O)N2CCNCC2)c2ccccc21` (stereo not drawn) [Compound 3w, 4-(Piperazine-1-carbonyl)-3,4-dihydroisoquinolin-1(2H)-one], on PARP1, the inhibition at 1 µM came out at 66.9 ± 1.5%.

For the molecule `O=C1NCC(C(=O)N2CCN(C3CCCC3)CC2)c2ccccc21` (stereo not drawn) [Compound 3x, 4–(4-Cyclopentylpiperazine-1-carbonyl)-3,4-dihydroisoquinolin-1(2H)-one], the melting point lay in the range of 177 to 178 °C. The inhibition at 1 µM at PARP1 amounted to 44.6 ± 2.9%.

As to `O=C1NCC(C(=O)N2CCN(C3CCCCC3)CC2)c2ccccc21` (stereo not drawn) [Compound 3y, 4–(4-Cyclohexylpiperazine-1-carbonyl)-3,4-dihydroisoquinolin-1(2H)-one], the melting point was in the range of 197 to 198 °C. For the same molecule, on PARP1, the “PARP1 inhibitory potency in words” value is “significantly less potent” and the inhibition at 1 µM turned out to be 54.5 ± 4.6%. Moreover, the “PARP1 inhibitory potency in words” value at PARP1 (listed as 3 y) is “inactive”.

Molecule `O=C1NCC(C(=O)N2CCN(C3CCCCCC3)CC2)c2ccccc21` (stereo not drawn) [Compound 3z, 4–(4-Cycloheptylpiperazine-1-carbonyl)-3,4-dihydroisoquinolin-1(2H)-one] came in with a melting point of 207 to 208 °C. In addition, the inhibition at 1 µM on PARP1 turned out to be 45.2 ± 7.4%.

For `O=C(c1c[nH]c(=O)c2ccccc12)N1CCC(N2CCCCC2)CC1` [Compound 11, 4-([1,4'-Bipiperidine]-1'-carbonyl)isoquinolin-1(2H)-one], the melting point lay in the range of 171 to 174 °C. Besides, the “fold lower potency compared to 3l or 3aa” value on PARP1 (3,4-dehydro analog vs 3l / 3aa) is given as “approximately 10 fold”. For the same molecule, the inhibition at 1 µM at PARP1 was determined as 49.1 ± 2.6%.

The inhibition is how much of the control response was suppressed. The IC50 is the concentration that gives 50% inhibition. A higher IC50 goes with weaker potency in that assay. As a reminder, the melting point is the temperature of the solid-liquid transition.
